Laboratory results taken from ChEMBL document CHEMBL5352433, “Design, synthesis, and biological evaluation of low-toxic lappaconitine derivatives as potential analgesics” (Eur J Med Chem, 2022).

System: Mus musculus
Experiment: Analgesic activity against acetic acid-induced Kunming writhing mouse model assessed as inhibition of writhing at 10 mg/kg, sc pretreated with compound for 15 mins followed by acetic acid addition and measured after 15 mins relative to control
Type: functional
Conditions: 0.5 h, time 30 min

SMILES	inhibition in vivo at 10 mg/kg [%]
CCN1C[C@]2(OC(=O)c3ccccc3NS(=O)(=O)c3ccc(OC)cc3OC)CC[C@H](OC)[C@]34C1[C@H](C[C@H]23)[C@@]1(O)C[C@H](OC)[C@H]2C[C@@H]4[C@]1(O)[C@H]2OC	34.9
CCN1C[C@]2(OC(=O)c3ccccc3NS(=O)(=O)c3ccc(Cl)s3)CC[C@H](OC)[C@]34C1[C@H](C[C@H]23)[C@@]1(O)C[C@H](OC)[C@H]2C[C@@H]4[C@]1(O)[C@H]2OC	31.3
CCN1C[C@]2(OC(=O)c3ccccc3NS(=O)(=O)c3cc(OC)ccc3OC)CC[C@H](OC)[C@]34C1[C@H](C[C@H]23)[C@@]1(O)C[C@H](OC)[C@H]2C[C@@H]4[C@]1(O)[C@H]2OC	65.8
CCN1C[C@]2(OC(=O)c3ccccc3NC(=O)c3ccc(Br)s3)CC[C@H](OC)[C@]34C1[C@H](C[C@H]23)[C@@]1(O)C[C@H](OC)[C@H]2C[C@@H]4[C@]1(O)[C@H]2OC	12.8
CCN1C[C@]2(OC(=O)c3ccccc3NS(=O)(=O)c3cccc(C#N)c3)CC[C@H](OC)[C@]34C1[C@H](C[C@H]23)[C@@]1(O)C[C@H](OC)[C@H]2C[C@@H]4[C@]1(O)[C@H]2OC	47.4
CCN1C[C@]2(OC(=O)c3ccccc3NC(=O)c3ccccc3Cl)CC[C@H](OC)[C@]34C1[C@H](C[C@H]23)[C@@]1(O)C[C@H](OC)[C@H]2C[C@@H]4[C@]1(O)[C@H]2OC	4.4
CCN1C[C@]2(OC(=O)c3ccccc3NS(=O)(=O)c3cccc(Br)c3)CC[C@H](OC)[C@]34C1[C@H](C[C@H]23)[C@@]1(O)C[C@H](OC)[C@H]2C[C@@H]4[C@]1(O)[C@H]2OC	13
CCN1C[C@]2(OC(=O)c3ccccc3NS(=O)(=O)c3cccc(C)c3)CC[C@H](OC)[C@]34C1[C@H](C[C@H]23)[C@@]1(O)C[C@H](OC)[C@H]2C[C@@H]4[C@]1(O)[C@H]2OC	52.1
CCCCc1ccc(C(=O)Nc2ccccc2C(=O)O[C@@]23CC[C@H](OC)[C@]45C([C@H](C[C@H]24)[C@@]2(O)C[C@H](OC)[C@H]4C[C@@H]5[C@]2(O)[C@H]4OC)N(CC)C3)cc1	28.2
CCN1C[C@]2(OC(=O)c3ccccc3NS(=O)(=O)c3cc(Cl)ccc3OC)CC[C@H](OC)[C@]34C1[C@H](C[C@H]23)[C@@]1(O)C[C@H](OC)[C@H]2C[C@@H]4[C@]1(O)[C@H]2OC	43.2
CCN1C[C@]2(OC(=O)c3ccccc3NC(=O)c3ccccc3N(C)C)CC[C@H](OC)[C@]34C1[C@H](C[C@H]23)[C@@]1(O)C[C@H](OC)[C@H]2C[C@@H]4[C@]1(O)[C@H]2OC	34.2
CCN1C[C@]2(OC(=O)c3ccccc3NS(=O)(=O)c3ccccc3C(F)(F)F)CC[C@H](OC)[C@]34C1[C@H](C[C@H]23)[C@@]1(O)C[C@H](OC)[C@H]2C[C@@H]4[C@]1(O)[C@H]2OC	55.2
CCN1C[C@]2(OC(=O)c3ccccc3NS(=O)(=O)c3cc(F)ccc3F)CC[C@H](OC)[C@]34C1[C@H](C[C@H]23)[C@@]1(O)C[C@H](OC)[C@H]2C[C@@H]4[C@]1(O)[C@H]2OC	45.1
CCN1C[C@]2(OC(=O)c3ccccc3NS(=O)(=O)c3ccc(N(C)C)cc3)CC[C@H](OC)[C@]34C1[C@H](C[C@H]23)[C@@]1(O)C[C@H](OC)[C@H]2C[C@@H]4[C@]1(O)[C@H]2OC	23
CCN1C[C@]2(OC(=O)c3ccccc3NS(=O)(=O)c3ccc(F)c(F)c3)CC[C@H](OC)[C@]34C1[C@H](C[C@H]23)[C@@]1(O)C[C@H](OC)[C@H]2C[C@@H]4[C@]1(O)[C@H]2OC	28.3
CCN1C[C@]2(OC(=O)c3ccccc3NS(=O)(=O)c3ccc(Cl)cc3)CC[C@H](OC)[C@]34C1[C@H](C[C@H]23)[C@@]1(O)C[C@H](OC)[C@H]2C[C@@H]4[C@]1(O)[C@H]2OC	11.7
CCN1C[C@]2(OC(=O)c3ccccc3NS(=O)(=O)CC)CC[C@H](OC)[C@]34C1[C@H](C[C@H]23)[C@@]1(O)C[C@H](OC)[C@H]2C[C@@H]4[C@]1(O)[C@H]2OC	4
CCN1C[C@]2(OC(=O)c3ccccc3NS(=O)(=O)c3cccc([N+](=O)[O-])c3)CC[C@H](OC)[C@]34C1[C@H](C[C@H]23)[C@@]1(O)C[C@H](OC)[C@H]2C[C@@H]4[C@]1(O)[C@H]2OC	6.7
CCCOc1ccccc1C(=O)Nc1ccccc1C(=O)O[C@@]12CC[C@H](OC)[C@]34C([C@H](C[C@H]13)[C@@]1(O)C[C@H](OC)[C@H]3C[C@@H]4[C@]1(O)[C@H]3OC)N(CC)C2	19.2
CCN1C[C@]2(OC(=O)c3ccccc3NC(=O)C3CCCCC3)CC[C@H](OC)[C@]34C1[C@H](C[C@H]23)[C@@]1(O)C[C@H](OC)[C@H]2C[C@@H]4[C@]1(O)[C@H]2OC	34.5

SMILES	inhibition in vivo at 10 mg/kg [%]
CCN1C[C@]2(OC(=O)c3ccccc3NC(=O)c3ccc(C)cc3C)CC[C@H](OC)[C@]34C1[C@H](C[C@H]23)[C@@]1(O)C[C@H](OC)[C@H]2C[C@@H]4[C@]1(O)[C@H]2OC	0
CCN1C[C@]2(OC(=O)c3ccccc3NS(=O)(=O)c3ccccc3Cl)CC[C@H](OC)[C@]34C1[C@H](C[C@H]23)[C@@]1(O)C[C@H](OC)[C@H]2C[C@@H]4[C@]1(O)[C@H]2OC	64.3
CCN1C[C@]2(OC(=O)c3ccccc3NC(=O)c3ccc(I)cc3)CC[C@H](OC)[C@]34C1[C@H](C[C@H]23)[C@@]1(O)C[C@H](OC)[C@H]2C[C@@H]4[C@]1(O)[C@H]2OC	31.1
CCN1C[C@]2(OC(=O)c3ccccc3NS(=O)(=O)c3ccccc3[N+](=O)[O-])CC[C@H](OC)[C@]34C1[C@H](C[C@H]23)[C@@]1(O)C[C@H](OC)[C@H]2C[C@@H]4[C@]1(O)[C@H]2OC	58.5
CCN1C[C@]2(OC(=O)c3ccccc3NS(=O)(=O)c3c(C)cc(C)cc3C)CC[C@H](OC)[C@]34C1[C@H](C[C@H]23)[C@@]1(O)C[C@H](OC)[C@H]2C[C@@H]4[C@]1(O)[C@H]2OC	52.1
CCN1C[C@]2(OC(=O)c3ccccc3NS(=O)(=O)c3ccc(C)cc3)CC[C@H](OC)[C@]34C1[C@H](C[C@H]23)[C@@]1(O)C[C@H](OC)[C@H]2C[C@@H]4[C@]1(O)[C@H]2OC	27.7
CCc1ccc(C(=O)Nc2ccccc2C(=O)O[C@@]23CC[C@H](OC)[C@]45C([C@H](C[C@H]24)[C@@]2(O)C[C@H](OC)[C@H]4C[C@@H]5[C@]2(O)[C@H]4OC)N(CC)C3)cc1	26.7
CCN1C[C@]2(OC(=O)c3ccccc3NS(=O)(=O)c3ccc(F)cc3F)CC[C@H](OC)[C@]34C1[C@H](C[C@H]23)[C@@]1(O)C[C@H](OC)[C@H]2C[C@@H]4[C@]1(O)[C@H]2OC	27.2
CCN1C[C@]2(OC(=O)c3ccccc3NS(=O)(=O)c3cccc4c(N(C)C)cccc34)CC[C@H](OC)[C@]34C1[C@H](C[C@H]23)[C@@]1(O)C[C@H](OC)[C@H]2C[C@@H]4[C@]1(O)[C@H]2OC	42.5
CCN1C[C@]2(OC(=O)c3ccccc3NS(C)(=O)=O)CC[C@H](OC)[C@]34C1[C@H](C[C@H]23)[C@@]1(O)C[C@H](OC)[C@H]2C[C@@H]4[C@]1(O)[C@H]2OC	22.8
CCN1C[C@]2(OC(=O)c3ccccc3NC(=O)C3CCOC3)CC[C@H](OC)[C@]34C1[C@H](C[C@H]23)[C@@]1(O)C[C@H](OC)[C@H]2C[C@@H]4[C@]1(O)[C@H]2OC (stereo not given in full)	34
CCN1C[C@]2(OC(=O)c3ccccc3NS(=O)(=O)CCCCl)CC[C@H](OC)[C@]34C1[C@H](C[C@H]23)[C@@]1(O)C[C@H](OC)[C@H]2C[C@@H]4[C@]1(O)[C@H]2OC	32.1
CCN1C[C@]2(OC(=O)c3ccccc3NS(=O)(=O)c3cccc(OC)c3)CC[C@H](OC)[C@]34C1[C@H](C[C@H]23)[C@@]1(O)C[C@H](OC)[C@H]2C[C@@H]4[C@]1(O)[C@H]2OC	37.1
CCN1C[C@]2(OC(=O)c3ccccc3NC(=O)C3CCCO3)CC[C@H](OC)[C@]34C1[C@H](C[C@H]23)[C@@]1(O)C[C@H](OC)[C@H]2C[C@@H]4[C@]1(O)[C@H]2OC (stereo not given in full)	21.8
CCN1C[C@]2(OC(=O)c3ccccc3NC(=O)c3ccc(C#N)cc3)CC[C@H](OC)[C@]34C1[C@H](C[C@H]23)[C@@]1(O)C[C@H](OC)[C@H]2C[C@@H]4[C@]1(O)[C@H]2OC	31.5
CCN1C[C@]2(OC(=O)c3ccccc3NS(=O)(=O)c3ccccc3C#N)CC[C@H](OC)[C@]34C1[C@H](C[C@H]23)[C@@]1(O)C[C@H](OC)[C@H]2C[C@@H]4[C@]1(O)[C@H]2OC	53.9
CCN1C[C@]2(OC(=O)c3ccccc3NC(=O)c3cccc(C#N)c3)CC[C@H](OC)[C@]34C1[C@H](C[C@H]23)[C@@]1(O)C[C@H](OC)[C@H]2C[C@@H]4[C@]1(O)[C@H]2OC	10.7
CCN1C[C@]2(OC(=O)c3ccccc3NC(=O)c3ccc(Cl)c(Cl)c3)CC[C@H](OC)[C@]34C1[C@H](C[C@H]23)[C@@]1(O)C[C@H](OC)[C@H]2C[C@@H]4[C@]1(O)[C@H]2OC	10.4
CCN1C[C@]2(OC(=O)c3ccccc3NS(=O)(=O)c3ccc(Br)cc3)CC[C@H](OC)[C@]34C1[C@H](C[C@H]23)[C@@]1(O)C[C@H](OC)[C@H]2C[C@@H]4[C@]1(O)[C@H]2OC	11.4
CCN1C[C@]2(OC(=O)c3ccccc3NS(=O)(=O)c3ccc(OC)c(OC)c3)CC[C@H](OC)[C@]34C1[C@H](C[C@H]23)[C@@]1(O)C[C@H](OC)[C@H]2C[C@@H]4[C@]1(O)[C@H]2OC	13.7
